According to US10517849B2, “LSD1 inhibitors and medical uses thereof” (Constellation Pharmaceuticals, Inc., priority 2016, dated 2019):
Where a name gives a salt, the structure may show the parent alone.

Legend:
[1] = test system: LY-96 mRNA induction in MV4-11 cells; experiment: LSD1 LY96 Quantigene Assay; type: cell-based; details: Homo sapiens, 16 h, Quantigene 2.0
Method: MV4-11 cells were cultured at a density of 4×10^4 cells per well in a 96-well plates and treated with various doses inhibitor starting from 10 μM up to 0.0005 μM for 16 h. The LY-96 mRNA induction was quantified using the Quantigene 2.0 system (Affymetrix). The cells were lysed with Lysis Mixture containing Proteinase K. The working reagent for capturing the RNA was prepared according to the steps detailed in “Capturing Target RNA from Cultured Cell or Blood Lysates” in the Quantigene handbook. The subsequent hybridization with LY-96 probe, signal amplification and detection steps were performed as described in the manual. The chemiluminescence was read using Envision (PerkinElmer) and Abase (IDBS software) was used to plot the dose response curves and calculate IC50.

Kasumi-1 = Kasumi-1 GI50 Assay; type: cell-based; details: Homo sapiens, 288 h; Kasumi-1 cells, 12 days, Cell Titer-Glo viability
Method: Cells were plated at 5,000 cells per well in 96 well tissue culture dishes containing tool compounds arrayed in a 10-point dose curve, ranging from […] with 4-fold dilutions, and split every fourth day at a fixed ratio to re-establish 5,000 cells/well density for DMSO-treated controls. Cell treatments were carried out for a total of 12 days. At each 4-day split, the viable cell numbers were determined using the Cell Titer-Glo luminescent cell viability assay (Promega, Madison, Wis. USA) using an EnVision® Multilabel Plate Reader (Perkin Elmer, Waltham, Mass. USA). GraphPad Prism 6 (GraphPad Software, Inc., La Jolla, Calif. USA) was used for curve fitting and determination of GI50 values.

LSD1 = LSD1 (Homo sapiens (Human), UniProt O60341); experiment: LSD1 TR-FRET Assay; type: biochemical; details: biotinylated H3K4me1 peptide 4 μM, 10 nM LSD1, 40 nM FAD, 50 minutes at room temperature
Method: LSD1 demethylase reactions were carried out in 50 mM HEPES pH 7.4, 100 mM NaCl, 1 mM DTT, 0.01% Tween-20, and 0.1 mg/mL BSA. All enzymatic reactions were performed for 50 minutes at room temperature in a 10-μL volume. Five microliters of 8 μM biotinylated H3K4me1 peptide solution was added to each well of a black 384 well, clear-bottom assay plate containing 80 nL compound (final concentration of 0.8% DMSO and 4 μM substrate). Reactions were initiated by the addition of a mixture containing 20 nM LSD1 and 80 nM FAD (5 μL). LSD1 and FAD final concentrations were 10 and 40 nM, respectively. Enzyme activity was stopped by the addition of 90 μL of high salt buffer consisting of 50 mM HEPES pH 7.4, 500 mM NaCl, 1 mM DTT, 0.01% Tween-20, and 0.1 mg/mL BSA. Ten microliters of the quenched reaction mixtures were transferred to a black 384 well ProxiPlate. Ten microliters of detection mixture was added to the ProxiPlate, Europium-labeled antibody and Streptavidin APC were used at final concentrations of 0.3 nM and 200 nM, respectively (total assay volume of 20 μL). Capture of the product peptide by the anti-H3K4me0 antibody and Streptavidin APC was allowed to proceed for 60 min at room temperature before measuring the TR-FRET signal. Plates were read on a Perkin Elmer EnVision. Percent inhibition was calculated using Max (no inhibitor) and Min (quenched with stop buffer) controls and inhibition curves plotted to determine IC50 values.

Structure (SMILES)	EC50 [1] [nM]	GI50 (Kasumi-1) [nM]	IC50 (LSD1) [nM]
CC/C(=C\c1ccccc1)[C@@H]1C[C@H]1NC1CC2(CCN(CC(C)(C)O)CC2)C1 [Compound 18, 2-methyl-1-(2-(((1R,2S)-2-((E)-1-phenylbut-1-en-2-yl)cyclopropyl)amino)-7-azaspiro[3.5]nonan-7-yl)propan-2-ol dihydrochloride]	< 100	< 100	–
CC/C(=C\c1ccccc1)[C@@H]1C[C@H]1NC1CC2(C1)CN(CCS(N)(=O)=O)C2 [Compound 32]	< 100	< 100	< 100
CC/C(=C\c1ccccc1)[C@@H]1C[C@H]1NC1CC2(C1)CN(CCO)C2 [Compound 1, 2-(6-(((1R,2S)-2-((E)-1-phenylbut-1-en-2-yl)cyclopropyl)amino)-2-azaspiro[3.3]heptan-2-yl)ethanol]	< 100	< 100	< 100
CC/C(=C\c1ccccc1)[C@@H]1C[C@H]1NC1CC2(CCN(CCS(N)(=O)=O)CC2)C1 [Compound 23, 2-(2-(((1R,2S)-2-((E)-1-phenylbut-1-en-2-yl)cyclopropyl)amino)-7-azaspiro[3.5]nonan-7-yl)ethanesulfonamide dihydrochloride]	< 100	< 100	< 100
CC/C(=C\c1ccccc1)[C@@H]1C[C@H]1NC1CC2(C1)CN(CC(=O)NCCS(C)(=O)=O)C2 [Compound 26, N-(2-(methylsulfonyl)ethyl)-2-(6-(((1R,2S)-2-((E)-1-phenylbut-1-en-2-yl)cyclopropyl)amino)-2-azaspiro[3.3]heptan-2-yl)acetamide bis(2,2,2-trifluoroacetate)]	< 100	< 100	–
CC/C(=C\c1ccccc1)[C@@H]1C[C@H]1NC1CC2(C1)CN(C(CO)CO)C2 [Compound 2, 2-(6-(((1R,2S)-2-((E)-1-phenylbut-1-en-2-yl)cyclopropyl)amino)-2-azaspiro[3.3]heptan-2-yl)propane-1,3-diol]	< 100	< 100	< 100
CC/C(=C\c1ccccc1)[C@@H]1C[C@H]1NC1CC2(C1)CN(CC(=O)N(C)C)C2 [Compound 28, N,N-dimethyl-2-(6-(((1R,2S )-2-((E)-1-phenylbut-1-en-2-yl)cyclopropyl)amino)-2-azaspiro[3.3]heptan-2-yl)acetamide bis(2,2,2-trifluoroacetate)]	< 100	< 100	–
CC/C(=C\c1ccccc1)[C@@H]1C[C@H]1NC1CC2(CCN(C[C@H](O)CO)CC2)C1 [Compound 20, (S)-3-(2-(((1R,2S)-2-((E)-1-phenylbut-1-en-2-yl)cyclopropyl)amino)-7-azaspiro[3.5]nonan-7-yl)propane-1,2-diol dihydrochloride]	< 100	< 100	–
CC/C(=C\c1ccccc1)[C@@H]1C[C@H]1NC1CC2(C1)CN(C(C)(C)C(N)=O)C2 [Compound 14, 2-methyl-2-(6-(((1R,2S)-2-((E)-1-phenylbut-1-en-2-yl)cyclopropyl)amino)-2-azaspiro[3.3]heptan-2-yl)propanamide bis(2,2,2-trifluoroacetate)]	< 100	< 100	–
CC/C(=C\c1ccccc1)[C@@H]1C[C@H]1NC1CC2(CCN(CCC(N)=O)CC2)C1 [Compound 24, 3-(2-(((1R,2S)-2-((E)-1-phenylbut-1-en-2-yl)cyclopropyl)amino)-7-azaspiro[3.5]nonan-7-yl)propanamide dihydrochloride]	< 100	< 100	–
CC/C(=C\c1ccccc1)[C@@H]1C[C@H]1NC1CC2(C1)CN(CCNS(=O)(=O)C(C)C)C2 [Compound 8, N-(2-(6-(((1R,2S)-2-((E)-1-phenylbut-1-en-2-yl)cyclopropyl)amino)-2-azaspiro[3.3]heptan-2-yl)ethyl)propane-2-sulfonamide bis(2,2,2-trifluoroacetate)]	< 100	< 100	–
CC/C(=C\c1ccccc1)[C@@H]1C[C@H]1NC1CC2(C1)CN(CCNS(=O)(=O)CC)C2 [Compound 7, N-(2-(6-(((1R,2S)-2-((E)-1-phenylbut-1-en-2-yl)cyclopropyl)amino)-2-azaspiro[3.3]heptan-2-yl)ethyl)ethanesulfonamide bis(2,2,2-trifluoroacetate)]	< 100	< 100	–
CC/C(=C\c1ccccc1)[C@@H]1C[C@H]1NC1CC2(CCN(C[C@@H](C)O)CC2)C1 [Compound 16, (R)-1-(2-(((1R,2S)-2-((E)-1-phenylbut-1-en-2-yl)cyclopropyl)amino)-7-azaspiro[3.5]nonan-7-yl)propan-2-ol dihydrochloride]	< 100	< 100	–
CC/C(=C\c1ccccc1)[C@@H]1C[C@H]1NC1CC2(CCN(C(CO)CO)CC2)C1 [Compound 10, 2-(2-(((1R,2S)-2-((E)-1-phenylbut-1-en-2-yl)cyclopropyl)amino)-7-azaspiro[3.5]nonan-7-yl)propane-1,3-diol bis(2,2,2-trifluoroacetate)]	< 100	< 100	–

The next lines start with results.

EC50 [1] [nM]	Structure (SMILES)	GI50 (Kasumi-1) [nM]	IC50 (LSD1) [nM]
< 100	CC/C(=C\c1ccccc1)[C@@H]1C[C@H]1NC1CC2(CCN(C[C@@H](O)CO)CC2)C1 [Compound 19, (R)-3-(2-(((1R,2S)-2-((E)-1-phenylbut-1-en-2-yl)cyclopropyl)amino)-7-azaspiro[3.5]nonan-7-yl)propane-1,2-diol dihydrochloride]	< 100	–
< 100	CC/C(=C\c1ccccc1)[C@@H]1C[C@H]1NC1CC2(C1)CN(CCNC(C)=O)C2 [Compound 5, N-(2-(6-(((1R,2S)-2-((E)-1-phenylbut-1-en-2-yl)cyclopropyl)amino)-2-azaspiro[3.3]heptan-2-yl)ethyl)acetamide bis(2,2,2-trifluoroacetate)]	< 100	–
< 100	CC/C(=C\c1ccccc1)[C@@H]1C[C@H]1NC1CC2(C1)CN(C(C)C(N)=O)C2 (stereo partly drawn) [Compound 30, 2-(6-(((1R,2S)-2-((E)-1-phenylbut-1-en-2-yl)cyclopropyl)amino)-2-azaspiro[3.3]heptan-2-yl)propanamide bis(2,2,2-trifluoroacetate)]	< 100	–
< 100	CC/C(=C\c1ccccc1)[C@@H]1C[C@H]1NC1CC2(C1)CN(CC(=O)NS(C)(=O)=O)C2 [Compound 29, N-(methylsulfonyl)-2-(6-(((1R,2S)-2-((E)-1-phenylbut-1-en-2-yl)cyclopropyl)amino)-2-azaspiro[3.3]heptan-2-yl)acetamide bis(2,2,2-trifluoroacetate)]	< 100	–
< 100	CC/C(=C\c1ccccc1)[C@@H]1C[C@H]1NC1CC2(C1)CN(CC(C)(C)NS(C)(=O)=O)C2 [Compound 15, N-(2-methyl-1-(6-(((1R,2S)-2-((E)-1-phenylbut-1-en-2-yl)cyclopropyl)amino)-2-azaspiro[3.3]heptan-2-yl)propan-2-yl)methanesulfonamide bis(2,2,2-trifluoroacetate)]	< 100	–
< 100	CC/C(=C\c1ccccc1)[C@@H]1C[C@H]1NC1CC2(C1)CN(CCNS(=O)(=O)C1CC1)C2 [Compound 6, N-(2-(6-(((1R,2S)-2-((E)-1-phenylbut-1-en-2-yl)cyclopropyl)amino)-2-azaspiro[3.3]heptan-2-yl)ethyl)cyclopropanesulfonamide bis(2,2,2-trifluoroacetate)]	< 100	–
< 100	CC/C(=C\c1ccccc1)[C@@H]1C[C@H]1NC1CC2(C1)CN(CC(=O)NC(C)C)C2 [Compound 27, N-isopropyl-2-(6-(((1R,2S)-2-((E)-1-phenylbut-1-en-2-yl)cyclopropyl)amino)-2-azaspiro[3.3]heptan-2-yl)acetamide bis(2,2,2-trifluoroacetate)]	< 100	–
< 100	CC/C(=C\c1ccccc1)[C@@H]1C[C@H]1NC1CC2(C1)CN(CCNS(=O)(=O)CCOC)C2 [Compound 9, 2-methoxy-N-(2-(6-(((1R,2S)-2-((E)-1-phenylbut-1-en-2-yl)cyclopropyl)amino)-2-azaspiro[3.3]heptan-2-yl)ethyl)ethanesulfonamide bis(2,2,2-trifluoroacetate)]	< 100	–
